Details in all cases: growth mode: biofilm, 24 h; exposure time: 24 h
Compound in test [1]: T1, NC[C@H]1O[C@H](O[C@H]2[C@H](O)[C@@H](O[C@H]3O[C@H](CO)[C@@H](O)[C@H](N)[C@H]3O)[C@H](N)C[C@@H]2N)[C@H](N)C[C@@H]1O [tobramycin]
The experiment in a line: minimum concentration of killing, 2-log CFU reduction of biofilm (MCK99); higher = more biofilm tolerance. As for the experimental part:
(§1)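 Clinical P. aeruginosa isolates were grown as static biofilms for 24 h at 37 °C in LB in half-area 96-well plates, then exposed for 24 h to tobramycin at 1, 4, 16, 64, 256 or […]. Surviving CFU were counted by spotting serial dilutions. MCK is the lowest tested concentration giving the stated log reduction in CFU versus an untreated control; '>1024' means the reduction was not reached at the top dose, and 1 is the lowest dose tested (≤1).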

Compound in test [2]: T2, CCC(C)CCCC(=O)N[C@@H](CCN)C(=O)N[C@H](C(=O)N[C@@H](CCN)C(=O)N[C@H]1CCNC(=O)[C@H]([C@@H](C)O)NC(=O)[C@H](CCN)NC(=O)[C@H](CCN)NC(=O)[C@H](CC(C)C)NC(=O)[C@@H](CC(C)C)NC(=O)[C@H](CCN)NC1=O)[C@@H](C)O [colistin]
Described as above. As for the experimental part: (§2)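 Clinical P. aeruginosa isolates were grown as static biofilms for 24 h at 37 °C in LB in half-area 96-well plates, then exposed for 24 h to colistin at 1, 4, 16, 64, 256 or […]. Surviving CFU were counted by spotting serial dilutions. MCK is the lowest tested concentration giving the stated log reduction in CFU versus an untreated control; '>1024' means the reduction was not reached at the top dose, and 1 is the lowest dose tested (≤1).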

Compound in test [3]: T1, tobramycin
The experiment in a line: minimum concentration of killing, 4-log CFU reduction of biofilm (MCK99.99); higher = more biofilm tolerance. As for the experimental part:
as §1

Compound in test [4]: T1, tobramycin
The experiment in a line: minimum concentration eradicating biofilm below detection limit (MCK-E); higher = more biofilm tolerance. As for the experimental part: as §1

Compound in test [5]: T1, tobramycin
As to the kind of experiment: minimum concentration of killing, 1-log CFU reduction of biofilm (MCK90); higher = more biofilm tolerance. As for the experimental part:
as §1

Compound in test [6]: T2, colistin
As to the kind of experiment: minimum concentration of killing, 4-log CFU reduction of biofilm (MCK99.99); higher = more biofilm tolerance. How it is done:
as §2

Compound in test [7]: T2, colistin
The experiment in a line: minimum concentration of killing, 1-log CFU reduction of biofilm (MCK90); higher = more biofilm tolerance. As for the experimental part: as §2

Compound in test [8]: T2, colistin
As to the kind of experiment: minimum concentration eradicating biofilm below detection limit (MCK-E); higher = more biofilm tolerance. As for the experimental part: as §2

Data on 21 test systems can be found in the supplement of paper PMC8920030.

Consider “Pseudomonas aeruginosa clinical isolate F1968”, for which the “minimum concentration of killing” value in test [1] was 64 µg/mL; in test [2] it was 256 µg/mL; in test [3], 256 µg/mL; in test [5], 4 µg/mL; in test [6] it was 256 µg/mL; in test [7], 64 µg/mL. Besides, the entries for the “minimum concentration eradicating biofilm below detection limit” value in test [4] and in test [8] were 1020 µg/mL and 256 µg/mL, respectively.
Turning to “Pseudomonas aeruginosa clinical isolate CH5621”, the “minimum concentration of killing” value in test [1] was 1020 µg/mL; in test [2] it was 256 µg/mL; in test [3] it was > 1020 µg/mL; in test [5], 64 µg/mL; in test [6], 256 µg/mL; in test [7], 256 µg/mL. The “minimum concentration eradicating biofilm below detection limit” value in test [4] is > 1020 µg/mL; in test [8], 256 µg/mL.
As to “Pseudomonas aeruginosa clinical isolate F1689”, the “minimum concentration of killing” value in test [1] and in test [5] was 4 µg/mL each time.
As to “Pseudomonas aeruginosa clinical isolate F2044”, in test [8], the “minimum concentration eradicating biofilm below detection limit” value came to 256 µg/mL.
On to “Pseudomonas aeruginosa clinical isolate F2026”, for which the “minimum concentration of killing” value in test [1] is 256 µg/mL; in test [2] it was 256 µg/mL; in test [3], > 1020 µg/mL; in test [6] it was 256 µg/mL; in test [7], 256 µg/mL. In addition, the “minimum concentration eradicating biofilm below detection limit” value in test [4] was > 1020 µg/mL; in test [8], 256 µg/mL.
As to “Pseudomonas aeruginosa clinical isolate CH5591”, the “minimum concentration of killing” value was 1020 µg/mL in test [1], > 1020 µg/mL in test [3] and 1020 µg/mL in test [5]. In test [4], the “minimum concentration eradicating biofilm below detection limit” value was > 1020 µg/mL.
On to “Pseudomonas aeruginosa clinical isolate F2034”, for which the “minimum concentration of killing” value in test [2] turned out to be 64 µg/mL; in test [6], 256 µg/mL; in test [7] it was 64 µg/mL. Also, in test [8], the “minimum concentration eradicating biofilm below detection limit” value stood at 256 µg/mL.
With “Pseudomonas aeruginosa clinical isolate F1659”, the “minimum concentration of killing” value in test [1] amounted to 16 µg/mL; in test [2], 64 µg/mL; in test [3], 256 µg/mL; in test [5], 4 µg/mL; in test [6], 64 µg/mL; in test [7] it was 16 µg/mL. Besides, in test [4], the “minimum concentration eradicating biofilm below detection limit” value stood at 1020 µg/mL.
For the test system “Pseudomonas aeruginosa clinical isolate F1997”, the “minimum concentration of killing” value in test [1] came out at 64 µg/mL; in test [3], 1020 µg/mL; in test [5], 16 µg/mL. In addition, the “minimum concentration eradicating biofilm below detection limit” value in test [4] was > 1020 µg/mL.
For “Pseudomonas aeruginosa clinical isolate F2035”, the figures for the “minimum concentration of killing” value in test [2], in test [6] and in test [7] were 64 µg/mL, 256 µg/mL and 64 µg/mL, respectively. The “minimum concentration eradicating biofilm below detection limit” value in test [8] turned out to be 1020 µg/mL.
Regarding “Pseudomonas aeruginosa clinical isolate CH5548”, the entries for the “minimum concentration of killing” value in test [1], in test [3] and in test [5] were 4 µg/mL, 16 µg/mL and 4 µg/mL, respectively. Also, in test [4], the “minimum concentration eradicating biofilm below detection limit” value worked out at 64 µg/mL.
In the case of “Pseudomonas aeruginosa clinical isolate F1883”, the “minimum concentration of killing” value came out at 256 µg/mL in test [1]; 256 µg/mL in test [2]; 64 µg/mL in test [5]; 1020 µg/mL in test [6]; 16 µg/mL in test [7]. Also, the “minimum concentration eradicating biofilm below detection limit” value in test [8] turned out to be 1020 µg/mL.
As to “Pseudomonas aeruginosa clinical isolate ESP057”, the “minimum concentration of killing” value was 256 µg/mL in test [2]; 256 µg/mL in test [3]; ≤ 1 µg/mL in test [5]; 256 µg/mL in test [6]; 256 µg/mL in test [7]. Besides, the “minimum concentration eradicating biofilm below detection limit” value in test [4] and in test [8] was 256 µg/mL in each case.
Take “Pseudomonas aeruginosa clinical isolate F1748”: the “minimum concentration of killing” value in test [1] was found to be 16 µg/mL; in test [2], 256 µg/mL; in test [3], 16 µg/mL; in test [5] it was 4 µg/mL; in test [6], 256 µg/mL; in test [7] it was 256 µg/mL. Also, the “minimum concentration eradicating biofilm below detection limit” value in test [4] amounted to 256 µg/mL.
With “Pseudomonas aeruginosa clinical isolate F2045”, the “minimum concentration eradicating biofilm below detection limit” value in test [8] was > 1020 µg/mL.
For the test system “Pseudomonas aeruginosa clinical isolate F2029”, the “minimum concentration of killing” value in test [2], in test [3], in test [6] and in test [7] was 256 µg/mL throughout. For the same test system, the “minimum concentration eradicating biofilm below detection limit” value in test [4] and in test [8] was 256 µg/mL throughout.
On to “Pseudomonas aeruginosa clinical isolate F2030”, for which the “minimum concentration of killing” value is 256 µg/mL in test [2], 1020 µg/mL in test [3], 256 µg/mL in test [6] and 64 µg/mL in test [7]. Further, the “minimum concentration eradicating biofilm below detection limit” value in test [8] came out at 256 µg/mL.
Take “Pseudomonas aeruginosa clinical isolate F1801”: the “minimum concentration of killing” value in test [1] was 4 µg/mL; in test [2], 256 µg/mL; in test [3] it was 256 µg/mL; in test [5], ≤ 1 µg/mL; in test [6] it was 256 µg/mL; in test [7], 256 µg/mL. The “minimum concentration eradicating biofilm below detection limit” value in test [4] was determined as 256 µg/mL.
Take “Pseudomonas aeruginosa clinical isolate CH5531”: the “minimum concentration of killing” value in test [1] stood at 256 µg/mL; in test [3], 256 µg/mL; in test [5], 16 µg/mL. The “minimum concentration eradicating biofilm below detection limit” value in test [4] stood at 1020 µg/mL.
As for “Pseudomonas aeruginosa clinical isolate F1894”, the “minimum concentration of killing” value in test [1] worked out at 16 µg/mL; in test [2], 256 µg/mL; in test [5], 4 µg/mL; in test [6], 256 µg/mL; in test [7], 256 µg/mL. Besides, the “minimum concentration eradicating biofilm below detection limit” value in test [4] and in test [8] was 256 µg/mL each time.
Take “Pseudomonas aeruginosa clinical isolate F2059”: the “minimum concentration eradicating biofilm below detection limit” value in test [8] was 256 µg/mL.
